The subject of one data set is Sitophilus granarius. The text has this:
(§1) 10 g of powder were placed at the bottom of a Petri dish. 50 “lesser grain borer” insects (Rhizopertha dominica) were then placed on the powder, along with sufficient food to ensure survival for 15 days.
The effect of various silicas and of a mixture of diatomaceous earth supplemented with 10% of silica gel was also compared.

The next data set deals with Tyrophagus putrescentiae. To be noted: after 24 hours; 10 g powder, 50 mites. How it is done:
(§2) 10 g of sodium bicarbonate powder having a particle size such that 100% of the particles have a diameter of less than 160μ, and at least 95% have a diameter of less than 100μ, were placed at the bottom of a Petri dish. 50 “Acarus siro” wheat mites were then placed on the powder.
The procedure was carried out as for Example 1, except that “Tyrophagus putrescentiae” cheese mites were used.

The next data set has as its system Rhizopertha dominica. To be noted: 10 g powder, 50 insects.
Description: In this example, a powder comprising 96% of sodium bicarbonate and 4% of amorphous precipitated fumed silica (Aerosil® 200 produced by Degussa) was used. The powder has a particle size such that 100% of the particles have a diameter of less than 160μ and at least 95% have a diameter of less than 100μ.
as §1
In Examples 4 and 5, the procedure was carried out as in Example 3, except that, in Example 4, a powder consisting essentially of sodium bicarbonate was used and, in Example 5, a powder consisting essentially of silica (silica gel) was used.

In another data set the test system is Acarus siro. To be noted: after 48 hours; 10 g powder, 50 mites, mean of 3 samples.
Description: as §2

SMILES strings stand for the structures. Where two headings read alike, the source gives them in different places.

For the compound `O=C([O-])O.[Na+]` [Sodium bicarbonate, sodium bicarbonate], the “% mortality” value in the data set on Sitophilus granarius (24 h) is reported as 0%; in the data set on Sitophilus granarius (48 h), 0%; in the data set on Sitophilus granarius (72 h) it was 1%; in the data set on Sitophilus granarius (4 days), 5%; in the data set on Sitophilus granarius (7 days), 9%; in the data set on Sitophilus granarius (10 days) it was 55%. For the same compound, the “% mortality” value was 100% in the data set on Sitophilus granarius (15 days); 2% in the data set with Rhizopertha dominica (48 h); 8% in the data set with Rhizopertha dominica (72 h); 15% with Rhizopertha dominica (4 days); 21% in the data set with Rhizopertha dominica (7 days); 43% with Rhizopertha dominica (10 days). Also, the “% mortality” value in the data set with Rhizopertha dominica (15 days) is recorded as 91%. In addition, the “death of the acarids” value in the data set on Tyrophagus putrescentiae is on record as 100%; with Acarus siro, 95%.

Values taken from patent US8147891B2, “Use of an acaricidal powder” (SOLVAY (Societe Anonyme), priority 2002, dated 2012).
